Columns and labels:
Blood [1] = assay: Biodistribution in Sprague-Dawley rat blood at 14.8 to 18.5 MBq, iv treated with MP-10 for 5 mins prior to compound administration measured at 30 mins post-injection by gamma counting analysis; assay type: ADME, organism-based; settings: in vivo, 0.5 h
Blood [2] = assay: Biodistribution in Sprague-Dawley rat blood at 14.8 to 18.5 MBq, iv measured at 5 mins post-injection by gamma counting analysis; assay type: ADME, organism-based; settings: in vivo
Lung [3] = assay: Biodistribution in Sprague-Dawley rat lung at 14.8 to 18.5 MBq, iv measured at 5 mins post-injection by gamma counting analysis; assay type: ADME, organism-based; settings: in vivo
Liver [4] = assay: Biodistribution in Sprague-Dawley rat liver at 14.8 to 18.5 MBq, iv measured at 5 mins post-injection by gamma counting analysis; assay type: ADME, organism-based; settings: in vivo
Kidney [5] = assay: Biodistribution in Sprague-Dawley rat kidney at 14.8 to 18.5 MBq, iv measured at 5 mins post-injection by gamma counting analysis; assay type: ADME, organism-based; settings: in vivo
Muscle tissue [6] = assay: Biodistribution in Sprague-Dawley rat muscle at 14.8 to 18.5 MBq, iv measured at 5 mins post-injection by gamma counting analysis; assay type: ADME, organism-based; settings: in vivo
Rattus norvegicus [7] = assay: Biodistribution in Sprague-Dawley rat fat at 14.8 to 18.5 MBq, iv measured at 5 mins post-injection by gamma counting analysis; assay type: ADME, organism-based, Adipose tissue; settings: in vivo
Heart [8] = assay: Biodistribution in Sprague-Dawley rat heart at 14.8 to 18.5 MBq, iv measured at 5 mins post-injection by gamma counting analysis; assay type: ADME, organism-based; settings: in vivo
Cerebellum [9] = assay: Biodistribution in Sprague-Dawley rat cerebellum at 14.8 to 18.5 MBq, iv measured at 5 mins post-injection by gamma counting analysis; assay type: ADME, organism-based; settings: in vivo
Striatum [10] = assay: Biodistribution in Sprague-Dawley rat striatum at 14.8 to 18.5 MBq, iv measured at 5 mins post-injection by gamma counting analysis; assay type: ADME, organism-based; settings: in vivo
Brain [11] = assay: Biodistribution in Sprague-Dawley rat brain at 14.8 to 18.5 MBq, iv measured at 5 mins post-injection by gamma counting analysis; assay type: ADME, organism-based; settings: in vivo
Blood [12] = assay: Biodistribution in Sprague-Dawley rat blood at 14.8 to 18.5 MBq, iv measured at 30 mins post-injection by gamma counting analysis; assay type: ADME, organism-based; settings: in vivo, 0.5 h
Lung [13] = assay: Biodistribution in Sprague-Dawley rat lung at 14.8 to 18.5 MBq, iv measured at 30 mins post-injection by gamma counting analysis; assay type: ADME, organism-based; settings: in vivo, 0.5 h
Liver [14] = assay: Biodistribution in Sprague-Dawley rat liver at 14.8 to 18.5 MBq, iv measured at 30 mins post-injection by gamma counting analysis; assay type: ADME, organism-based; settings: in vivo, 0.5 h
Rattus norvegicus [15] = assay: Biodistribution in Sprague-Dawley rat fat at 14.8 to 18.5 MBq, iv measured at 30 mins post-injection by gamma counting analysis; assay type: ADME, organism-based, Adipose tissue; settings: in vivo, 0.5 h
Heart [16] = assay: Biodistribution in Sprague-Dawley rat heart at 14.8 to 18.5 MBq, iv measured at 30 mins post-injection by gamma counting analysis; assay type: ADME, organism-based; settings: in vivo, 0.5 h
Cerebellum [17] = assay: Biodistribution in Sprague-Dawley rat cerebellum at 14.8 to 18.5 MBq, iv measured at 30 mins post-injection by gamma counting analysis; assay type: ADME, organism-based; settings: in vivo, 0.5 h
Striatum [18] = assay: Biodistribution in Sprague-Dawley rat striatum at 14.8 to 18.5 MBq, iv measured at 30 mins post-injection by gamma counting analysis; assay type: ADME, organism-based; settings: in vivo, 0.5 h
Brain [19] = assay: Biodistribution in Sprague-Dawley rat brain at 14.8 to 18.5 MBq, iv measured at 30 mins post-injection by gamma counting analysis; assay type: ADME, organism-based; settings: in vivo, 0.5 h
Kidney [20] = assay: Biodistribution in Sprague-Dawley rat kidney at 14.8 to 18.5 MBq, iv measured at 60 mins post-injection by gamma counting analysis; assay type: ADME, organism-based; settings: in vivo, 1 h
Muscle tissue [21] = assay: Biodistribution in Sprague-Dawley rat muscle at 14.8 to 18.5 MBq, iv measured at 60 mins post-injection by gamma counting analysis; assay type: ADME, organism-based; settings: in vivo, 1 h
Heart [22] = assay: Biodistribution in Sprague-Dawley rat heart at 14.8 to 18.5 MBq, iv measured at 60 mins post-injection by gamma counting analysis; assay type: ADME, organism-based; settings: in vivo, 1 h
Cerebellum [23] = assay: Biodistribution in Sprague-Dawley rat cerebellum at 14.8 to 18.5 MBq, iv measured at 60 mins post-injection by gamma counting analysis; assay type: ADME, organism-based; settings: in vivo, 1 h
Striatum [24] = assay: Biodistribution in Sprague-Dawley rat striatum at 14.8 to 18.5 MBq, iv measured at 60 mins post-injection by gamma counting analysis; assay type: ADME, organism-based; settings: in vivo, 1 h
Liver [25] = assay: Biodistribution in Sprague-Dawley rat liver at 14.8 to 18.5 MBq, iv treated with MP-10 for 5 mins prior to compound administration measured at 30 mins post-injection by gamma counting analysis; assay type: ADME, organism-based; settings: in vivo, 0.5 h
Muscle tissue [26] = assay: Biodistribution in Sprague-Dawley rat muscle at 14.8 to 18.5 MBq, iv treated with MP-10 for 5 mins prior to compound administration measured at 30 mins post-injection by gamma counting analysis; assay type: ADME, organism-based; settings: in vivo, 0.5 h
Rattus norvegicus [27] = assay: Biodistribution in Sprague-Dawley rat fat at 14.8 to 18.5 MBq, iv treated with MP-10 for 5 mins prior to compound administration measured at 30 mins post-injection by gamma counting analysis; assay type: ADME, organism-based, Adipose tissue; settings: in vivo, 0.5 h
Heart [28] = assay: Biodistribution in Sprague-Dawley rat heart at 14.8 to 18.5 MBq, iv treated with MP-10 for 5 mins prior to compound administration measured at 30 mins post-injection by gamma counting analysis; assay type: ADME, organism-based; settings: in vivo, 0.5 h
Cerebellum [29] = assay: Biodistribution in Sprague-Dawley rat cerebellum at 14.8 to 18.5 MBq, iv treated with MP-10 for 5 mins prior to compound administration measured at 30 mins post-injection by gamma counting analysis; assay type: ADME, organism-based; settings: in vivo, 0.5 h
Brain [30] = assay: Biodistribution in Sprague-Dawley rat brain at 14.8 to 18.5 MBq, iv treated with MP-10 for 5 mins prior to compound administration measured at 30 mins post-injection by gamma counting analysis; assay type: ADME, organism-based; settings: in vivo, 0.5 h
Nucleic Acid = assay: Ratio of drug level in striatum to cerebellum in Sprague-Dawley rat at 14.8 to 18.5 MBq, iv measured at 30 mins post-injection by gamma counting analysis; assay type: ADME, organism-based; settings: in vivo, 0.5 h
Frontal cortex = assay: Biodistribution in cynomolgus monkey frontal cortex at 260 to 370 MBq, iv measured at 20 to 100 mins post-injection by microPET analysis; assay type: ADME, organism-based, Macaca fascicularis; settings: in vivo
[31] = Biodistribution in cynomolgus monkey temporal cortex at 260 to 370 MBq, iv measured at 20 to 100 mins post-injection by microPET analysis; assay type: ADME, organism-based, Macaca fascicularis; settings: in vivo
[32] = Biodistribution in cynomolgus monkey hippocampus at 260 to 370 MBq, iv measured at 20 to 100 mins post-injection by microPET analysis; assay type: ADME, organism-based, Macaca fascicularis; settings: in vivo
[33] = Biodistribution in cynomolgus monkey white matter at 260 to 370 MBq, iv measured at 20 to 100 mins post-injection by microPET analysis; assay type: ADME, organism-based, Macaca fascicularis; settings: in vivo
Plasma [34] = assay: Metabolic stability in iv dosed cynomolgus monkey plasma assessed as compound remaining measured at 5 to 60 mins by HPLC analysis; assay type: ADME, organism-based, Macaca fascicularis; settings: in vivo
[35] = Metabolic stability in iv dosed cynomolgus monkey RBC assessed as compound remaining measured at 5 to 60 mins by HPLC analysis; assay type: ADME, organism-based, Macaca fascicularis, Erythrocyte; settings: in vivo
Plasma [36] = assay: Metabolic stability in iv dosed cynomolgus monkey plasma supernatant under deproteinated condition assessed as compound remaining measured at 5 to 60 mins by HPLC analysis; assay type: ADME, organism-based, Macaca fascicularis; settings: in vivo
Plasma [37] = assay: Drug metabolism in iv dosed cynomolgus monkey plasma assessed as retention time by HPLC analysis; assay type: ADME, organism-based, Macaca fascicularis; settings: in vivo

Compound | Drug uptake (Blood [1]) | Drug uptake (Blood [2]) | Drug uptake (Lung [3]) | Drug uptake (Liver [4]) | Drug uptake (Kidney [5]) | Drug uptake (Muscle tissue [6]) | Drug uptake (Rattus norvegicus [7]) | Drug uptake (Heart [8]) | Drug uptake (Cerebellum [9]) | Drug uptake (Striatum [10]) | Drug uptake (Brain [11]) | Drug uptake (Blood [12]) | Drug uptake (Lung [13]) | Drug uptake (Liver [14]) | Drug uptake (Rattus norvegicus [15]) | Drug uptake (Heart [16]) | Drug uptake (Cerebellum [17]) | Drug uptake (Striatum [18]) | Drug uptake (Brain [19]) | Drug uptake (Kidney [20]) | further results
Cn1cc(-c2ccncc2)c(-c2ccc(OCc3nc4ccccc4cc3O[11CH3])cc2)n1 | 0.407 % ID/g | 0.679 % ID/g | 1.602 % ID/g | 11.005 % ID/g | 4.354 % ID/g | 0.412 % ID/g | 0.935 % ID/g | 0.733 % ID/g | 0.229 % ID/g | 0.488 % ID/g | 0.231 % ID/g | 0.321 % ID/g | 0.408 % ID/g | 7.345 % ID/g | 0.851 % ID/g | 0.296 % ID/g | 0.097 % ID/g | 0.452 % ID/g | 0.133 % ID/g | 1.275 % ID/g | Drug uptake (Muscle tissue [21]): 0.142 % ID/g; Drug uptake (Heart [22]): 0.199 % ID/g; Drug uptake (Cerebellum [23]): 0.064 % ID/g; Drug uptake (Striatum [24]): 0.38 % ID/g; Drug uptake (Liver [25]): 5.781 % ID/g; Drug uptake (Muscle tissue [26]): 0.257 % ID/g; Drug uptake (Rattus norvegicus [27]): 1.353 % ID/g; Drug uptake (Heart [28]): 0.34 % ID/g; Drug uptake (Cerebellum [29]): 0.119 % ID/g; Drug uptake (Brain [30]): 0.128 % ID/g; Ratio (Nucleic Acid): 4.6; Drug uptake (Frontal cortex): Active; Drug uptake [31]: Active; Drug uptake [32]: Active; Drug uptake [33]: Active; Stability (Plasma [34]): 65%; Stability [35]: 25%; Stability (Plasma [36]): 88%; Retention_time (Plasma [37]): 8 min
Cn1cc(-c2ccncc2)c(-c2ccc(OCc3cc(O[11CH3])c4ccccc4n3)cc2)n1 | 0.343 % ID/g | 0.268 % ID/g | 0.89 % ID/g | 7.08 % ID/g | 2.34 % ID/g | 0.258 % ID/g | 0.242 % ID/g | 0.464 % ID/g | 0.215 % ID/g | 0.352 % ID/g | 0.21 % ID/g | 0.192 % ID/g | 0.233 % ID/g | 10.085 % ID/g | 0.371 % ID/g | 0.187 % ID/g | 0.066 % ID/g | 0.23 % ID/g | 0.087 % ID/g | 0.758 % ID/g | Drug uptake (Muscle tissue [21]): 0.084 % ID/g; Drug uptake (Heart [22]): 0.121 % ID/g; Drug uptake (Cerebellum [23]): 0.046 % ID/g; Drug uptake (Striatum [24]): 0.201 % ID/g; Drug uptake (Liver [25]): 4.723 % ID/g; Drug uptake (Muscle tissue [26]): 0.224 % ID/g; Drug uptake (Rattus norvegicus [27]): 0.697 % ID/g; Drug uptake (Heart [28]): 0.31 % ID/g; Drug uptake (Cerebellum [29]): 0.112 % ID/g; Drug uptake (Brain [30]): 0.114 % ID/g; Ratio (Nucleic Acid): 3.8; Drug uptake (Frontal cortex): Active; Drug uptake [31]: Active; Drug uptake [32]: Active; Drug uptake [33]: Active; Stability (Plasma [34]): 65%; Stability [35]: 25%; Stability (Plasma [36]): 88%; Retention_time (Plasma [37]): 9 min

— ChEMBL document CHEMBL3259797, “Radiosyntheses and in vivo evaluation of carbon-11 PET tracers for PDE10A in the brain of rodent and nonhuman primate” (Bioorg Med Chem, 2014)
